Reference: patent US12497364B2, “Compound for the determination of the protein FKBP12 and a sensor unit comprising it” (UNIVERSITA DEGLI STUDI DI FIRENZE, priority 2019, dated 2025)

Tests used:
FKBP12 [1] = molecular target: T1, FKBP12 (Homo sapiens, UniProt P62942); assay: QCM microgravimetric measurement of FKBP12 bound to the self-assembled monolayer (SAM), Langmuir fit; type: binding; settings: for Binding of FKBP12 in solution to the SAM (FIG. 5): mass of FKBP12 bound versus FKBP12 concentration in solution
T1 construct: purchased Interuniversity Magnetic Resonance Consortium of Paramagnetic Metalloproteins, CIRMMP (Florence, Italy); host or cells: Escherichia coli
Procedure: FKBP12 expressed in Escherichia coli, molecular weight 11900, purity >95% was supplied by the Interuniversity Magnetic Resonance Consortium of Paramagnetic Metalloproteins, CIRMMP (Florence, Italy). The purity of FKBP12 was determined by SDS electrophoresis. K2HPO4 and KH2PO4 for the preparation of the phosphate buffer was obtained from Sigma-Aldrich (Italy). All measurements were made using ultrapure water (resistivity=18 MΩ cm, pH=5.6 at 20° C.) obtained with a Milli-RO equipment coupled with a Milli-Q set up (Millipore, Italy).
(§1) The concentration of the stock solutions of FKBP12 in PBS buffer (pH 7.4, 0.15 M NaCl) was checked by UV/Vis measurements using ε280=9970 M^−1 cm^−1. The stock solution of FKBP12 was diluted to reach the concentrations used for the calibration straight line.
(§2) The microgravimetric analyses were carried out with a Quartz-Crystal microbalance (QCM-Z 500 from KSV-Finland). This instrumentation is equipped with a Peltier element for controlling the temperature inside the measurement chamber. All experiments were performed at a temperature of T=20.0±0.1° C.
The frequency and dissipation data for all recorded harmonics were processed with the QCMBrowse software which directly provides adsorbed mass in nanograms/cm^2, thickness of the monolayer in nanometers and viscoelastic parameters of the system.
The gold-coated piezoelectric quartz support covered with the SAMs as described above in Example 2, was brought into contact with solutions of increasing concentration of the FKBP12 protein and the concentration of the protein bound to the self-assembled monolayer SAM at saturation was recorded with gravimetric measurements.
Two different miniaturized versions of an open chamber QCM quartz crystal microbalance (from QCM KSV, Finland and an OpenQCM, Italy modified by the inventors) were also used as a device, allowing the use of small measurement volumes (less than 100 microliters) of the solution to analyse.
Again with reference to FIG. 5, it can be observed that in all the examined cases there is a saturation trend of the curves, which flatten once the sites available for binding the FKBP protein are exhausted. Considering the structure reached at this concentration as the final equilibrium structure, the relative structural parameters reported in the following Table 2 were calculated.
The trend shown in FIG. 5 can be rationalized through the Langmuir binding and/or adsorption equation: Δm/A=(Δm/A)sat[C]/[C]+kd
The application of this model to the data obtained from the microgravimetric measurements allowed to obtain a detailed picture of the interaction mechanism and the energetics involved, in particular we obtained the maximum surface density of FKBP12 (to saturation), the dissociation constant Kd for FKBP12/receptor in the nanosensor and free energy of physi-sorption. The values obtained are shown in Table 3 below, for all the types of SAMs examined.

FKBP12 [2] = molecular target: T1, FKBP12; assay: Calibration straight line for FKBP12 on the SAM nanosensor (QCM)
Procedure: as §1, §2
From the analysis of the calibration straight lines obtained for the systems examined, the linearity intervals and the experimental limit of detection (LOD) were obtained (wherein LOD means the smallest amount of measurable analyte with acceptable accuracy and precision) for each sensor tested, considering that the maximum sensitivity to the mass in the cell for liquids of the instrumentation used is 0.5 ng/cm^2. This limit may vary depending on the analytical instrumentation adopted for the same SAM used.

FKBP12 [3] = molecular target: T1, FKBP12; assay: Duration of operation of the SAM and its reconditioning (QCM); settings: reconditioning with imidazole or with ethanol
Procedure: The microgravimetric measurements described above were repeated on freshly prepared SAMs or aged up to 4 months, finding the same results, at least for SAMs stored in closed containers saturated with N2.
Measurements were also carried out on SAMs already used for a measurement, after reconditioning with imidazole or with ethanol. […] The same result was achieved by leaving in incubation the SAM in solution of the reconditioning solvent.

T1 sequence (P62942 whole entry): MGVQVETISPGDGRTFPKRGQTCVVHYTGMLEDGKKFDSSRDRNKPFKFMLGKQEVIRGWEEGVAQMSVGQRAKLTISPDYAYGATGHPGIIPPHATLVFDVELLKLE

(M/Area)max (Langmuir FIT), maximum surface density of FKBP12 at saturation (FKBP12 [1]; Table 2, SAM on gold-coated quartz crystal) [ng/cm^2]	Kd (FKBP12 [1]; Table 2, SAM on gold-coated quartz crystal, T=20.0 °C, pseudo-Kd for mixed systems) [nM]	(Maa/Area)max (Langmuir FIT) (FKBP12 [1]; Table 3) [ng/cm^2]	Area available for FKBP12 to saturation (FKBP12 [1]; Table 3, experimental data, at saturation) [Å^2]	Linear interval of the response to FKBP12 (FKBP12 [2]; FKBP12 concentration in solution, QCM mass sensitivity 0.5 ng/cm^2) [pM]	Limit of Detection (LOD) (FKBP12 [2]; LOD = 3x (y-intercept standard deviation)/slope of the calibration curve) [pM]	QCM frequency before addition of FKBP12 versus after rinsing with the reconditioning solvent (FKBP12 [3])	SMILES	Binding of FKBP12 in solution to the SAM (FIG. 5) (FKBP12 [1])
							CCCCCCCCCCCCS [C12SH, reference compound]	no interaction with the FKBP protein in solution is observed
123	0.75	123	1910	10 to 800	8.0	identical	O=C(CCCCCCCCCCS)Oc1ccc(C(=O)C(=O)N2CCCC[C@H]2C(=O)NCCCc2ccccc2)cc1 [GPS-SH1, (S)-4-(2-oxo-2-(2-((3-phenylpropyl)carbamoyl)piperidin-1-yl)acetyl)phenyl 11-mercaptoundecanoate]	binds
